{"source": "patent US6750256B1", "about": "“Use of aromatic aldehydes as insecticides” (Proguard, Inc., priority 1994, dated 2004)", "key": {"[1]": {"system": "adult Aedes aegypti mosquitos", "test": "Mosquito adulticide treated filter paper test", "format": "in vivo", "procedure": "The toxicity of the formulation for mosquitos was determined using adult Aedes aegypti mosquitos from the University of California Mosquito Control Research Laboratory at the Kearney Agricultural Center. The experiments were performed as double blind studies.\nOne ml test formulation was pipetted onto 11 cm #2 Whatman filter paper circle cut to fit shell vials (84 mm×23 mm) which was air dried at room temperature for two hours and placed in a shell vial (84 mm×23 mm). Twenty unblooded adult female mosquitos approximately four days of age were aspirated using gentle suction into each shell vial. The open end of the vial was covered with 1 mm nylon mesh and filter paper cut to fit for complete coverage from an 11 cm #2 Whatman filter paper circle. The vials were placed in a polyethylene mosquito bag (46 cm×20 cm) with a wet paper towel inside and loosely sealed. The bag was gently inflated by gently blowing in air and placed in an incubator at 22° C. for 24 hours with a day light cycle (14 hrs light; 10 hrs dark). Untreated paper and paper treated with H2O were used as controls. Mortality was determined by counting the number of dead mosquitos.\nThe efficacy of various concentrations of cinnamic aldehyde in a formulation of 2% Tween 80, 6% NaHCO3 was tested, using concentrations of cinnamic aldehyde ranging from 25,000 ppm to 10 ppm with and without the addition of saponin, 1:60 dilution of a 10° Brix solution. At concentrations down to 100 ppm added to the filter paper, 100% of the mosquitos were killed. At 10 ppm added to the filer paper, 78% of the mosquitos were killed in the absence of saponin, but only 5% with saponin 14% of mosquitos were killed with the addition of 2% Tween 80 and 6% NaHCO3 alone to the filter paper and 50% with the further addition of a 1:60 dilution 10° Brix saponin. The percent mortality is the average of three replications, with corrections for control mortality. Malathion was used as a positive control."}, "[2]": {"system": "soft tick (Ornithodoros coriaceus)", "test": "Tick treated filter paper test, soft ticks", "format": "in vivo", "procedure": "In a double blind experiment, filter papers (90 mm) (Whatman) were treated to uniform saturation with 1 ml of test formula and placed in 90 mm petri dishes. Ten arachnids were placed in each petri dish and the dish closed. […] The cinnamic aldehyde concentrations varied from 10-50,000 ppm in a vehicle of 2% Tween 80, 6% NaHCO3. The effect of vehicle alone or H2O (HPLC) was also tested. In separate experiments, the effects of the components of the vehicle were evaluated in comparison to water."}, "[3]": {"system": "thrips insects (Frankliniella occidentalis)", "test": "Residual activity on treated filter paper against thrips", "format": "in vivo", "details": "rehydrated 24 and 72 hours after spraying, thrips exposed one hour", "procedure": "In the first experiment, two ml of two concentrations of CNMA (0.3 and 1%) were sprayed on filter paper (Whatman). As a negative control, two ml of water was also sprayed on filter paper. Twenty-four hours later, two ml of water were sprayed on treatment and control filter paper, which were then dried for 30 min. Approximately 30 thrips insects (Frankliniella occidentalis) were introduced onto the treated filter papers and the number of F. occidentalis were observed after one hour. Mean mortality was calculated for each treatment. After 72 hours, the treated filter papers were flipped over and only the negative control filter paper and the filter paper treated with 1% CNMA were sprayed with 2 ml of water and allowed to dry for 30 minutes. Approximately 30 thrips were introduced onto the two treated filter papers and after one hour the number of dead F. occidentalis were observed and the mean mortality calculated for each treatment. A similar assay was conducted using AHCNMA. Mean mortality was higher for rehydrated filter papers compared to non-rehydrated filter papers over time."}, "[4]": {"system": "Adult male cockroaches (Dictyoptera; Blattelidae)", "test": "German cockroach topical application bioassay", "format": "in vivo, German cockroaches", "details": "2% (20,000 ppm) in aqueous vehicle (2% Tween 80, 6% NaHCO3); 5 ml spray; within five minutes", "procedure": "Adult male cockroaches (Dictyoptera; Blattelidae) were used to evaluate insecticidal activity of cinnamic aldehyde and/or coniferyl aldehyde by a topical application method.\nTwenty cockroaches were placed in stainless steel pails (20 liter) with lids. After one week provisioned with food, water and harborage, they were sprayed with 5 ml of a test formulation at arm's length (approximately 1 meter) using a Gilmour spray bottle. The number of dead or moribund cockroaches at 5 minutes, 30 minutes, 1 hour and 12 hours after treatment was counted and compared to those untreated (diluent only). Raid (active ingredients: permethrin, pyrethrins and PBO) was used as a positive control. Within five minutes, all cockroaches treated with 2% cinnamic aldehyde (20,000 ppm) in aqueous vehicle (2% Tween 80, 6% NaHCO3) were dead, as were all those treated with Raid. Ten percent of those treated with vehicle alone were dead in 30 minutes, with no further increase in mortality up to 12 hours."}, "[5]": {"details": "24 h, read-out: Percent Mortality CNMA (PGXL)"}, "[6]": {"details": "10 ppm in 2% Tween 80 and 6% NaHCO3"}, "[7]": {"details": "100 ppm in 2% Tween 80 and 6% NaHCO3"}, "[8]": {"details": "2,500 ppm in 2% Tween 80 and 6% NaHCO3"}, "[9]": {"details": "5,000 ppm in 2% Tween 80 and 6% NaHCO3"}, "[10]": {"details": "12,500 ppm in 2% Tween 80 and 6% NaHCO3"}, "[11]": {"details": "25,000 ppm in 2% Tween 80 and 6% NaHCO3"}}}
{"smiles": "O=C/C=C/c1ccccc1", "note": "[CNMA, cinnamic aldehyde]", "values": [{"measurement": "mosquitos killed", "setting": "[1]; 10 ppm added to the filter paper, in the absence of saponin", "result": 78, "unit": "%"}, {"measurement": "mosquitos killed", "setting": "[1]; 10 ppm added to the filter paper, with saponin", "result": 5, "unit": "%"}, {"measurement": "mortality at 10 ppm", "setting": "[1]; [5]", "result": 78, "unit": "%"}, {"measurement": "mortality at 100 ppm", "setting": "[1]; [5]", "result": 100, "unit": "%"}, {"measurement": "mortality at 2500 ppm", "setting": "[1]; [5]", "result": 95, "unit": "%"}, {"measurement": "mortality at 5000 ppm", "setting": "[1]; [5]", "result": 100, "unit": "%"}, {"measurement": "mortality at 12500 ppm", "setting": "[1]; [5]", "result": 100, "unit": "%"}, {"measurement": "mortality at 25000 ppm", "setting": "[1]; [5]", "result": 100, "unit": "%"}, {"measurement": "mosquitos killed", "setting": "[1]; concentrations down to 100 ppm added to the filter paper", "result": 100, "unit": "%"}, {"measurement": "Number Dead 24 Hours (#/30)", "setting": "[2]; [6]", "result": "0 #/30"}, {"measurement": "Number Dead 120 Hours (#/30)", "setting": "[2]; [6]", "result": "0 #/30"}, {"measurement": "Number Dead 24 Hours (#/30)", "setting": "[2]; [7]", "result": "0 #/30"}, {"measurement": "Number Dead 120 Hours (#/30)", "setting": "[2]; [7]", "result": "0 #/30"}, {"measurement": "Number Dead 24 Hours (#/30)", "setting": "[2]; [8]", "result": "2/30"}, {"measurement": "Number Dead 120 Hours (#/30)", "setting": "[2]; [8]", "result": "6/30"}, {"measurement": "Number Dead 24 Hours (#/30)", "setting": "[2]; [9]", "result": "3/30"}, {"measurement": "Number Dead 120 Hours (#/30)", "setting": "[2]; [9]", "result": "6/30"}, {"measurement": "Number Dead 24 Hours (#/30)", "setting": "[2]; [10]", "result": "5/30"}, {"measurement": "Number Dead 120 Hours (#/10)", "setting": "[2]; [10]", "result": "10/10"}, {"measurement": "Number Dead 120 Hours (#/30)", "setting": "[2]; [10]", "result": "6/30"}, {"measurement": "Number Dead 24 Hours (#/30)", "setting": "[2]; [11]", "result": "7/30"}, {"measurement": "Number Dead 120 Hours (#/10)", "setting": "[2]; [11]", "result": "10/10"}, {"measurement": "Number Dead 120 Hours (#/30)", "setting": "[2]; [11]", "result": "21/30"}, {"measurement": "Number Dead 120 Hours (#/10)", "setting": "[2]; 30,000 ppm in 2% Tween 80 and 6% NaHCO3", "result": "10/10"}, {"measurement": "Number Dead 120 Hours (#/10)", "setting": "[2]; 35,000 ppm in 2% Tween 80 and 6% NaHCO3", "result": "10/10"}, {"measurement": "Number Dead 120 Hours (#/10)", "setting": "[2]; 40,000 ppm in 2% Tween 80 and 6% NaHCO3", "result": "10/10"}, {"measurement": "Number Dead 120 Hours (#/10)", "setting": "[2]; 45,000 ppm in 2% Tween 80 and 6% NaHCO3", "result": "10/10"}, {"measurement": "Number Dead 120 Hours (#/10)", "setting": "[2]; 50,000 ppm in 2% Tween 80 and 6% NaHCO3", "result": "10/10"}, {"measurement": "mortality at 12500 ppm", "setting": "[2]; Ornithodoros coriaceus", "result": 100, "unit": "%"}, {"measurement": "residual activity in words", "setting": "[3]", "result": "residual activity"}, {"measurement": "cockroaches dead", "setting": "[4]", "result": "all"}]}
